Values of other authors, collected in patent publication EP0137640A1, “Chain extended analogues of methotrexate and aminopterin” (DANA-FARBER CANCER INSTITUTE, INC., priority 1983, dated 1985).

Tested on: carboxypeptidase Gl
Conditions: as described by Chabner et al. (1972) Nature, 239, 395

CN(Cc1cnc2nc(N)nc(N)c2n1)c1ccc(C(=O)N[C@@H](CCC(=O)O)C(=O)O)cc1 [MTX, 4-amino-4-deoxy-N^10-methyl-pteroylglutamic acid]
cleavage by carboxypeptidase Gl: rapidly cleaved
